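1) Cells in 96-well plates. 2) Compound, 48 h, 5 concentrations. 3) Linear interpolation between surrounding doses. 4) Unreached endpoint = highest concentration. At the GI50, growth is halved. TGI is the concentration that stops growth completely.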
Tests used:
Assay in all cases: NCI tumour cell line growth inhibition, 48 h
SNB-75 CNS = tested on: SNB-75 CNS
NCI-H522 lung = tested on: NCI-H522 lung
DU-145 prostate = tested on: DU-145 prostate
RXF 393 renal = tested on: RXF 393 renal
SK-MEL-5 melanoma = tested on: SK-MEL-5 melanoma
HOP-62 NSCLC = tested on: HOP-62 NSCLC
HT29 colon = tested on: HT29 colon
MCF7 breast = tested on: MCF7 breast
MDA-MB-435 = tested on: MDA-MB-435
UACC-62 melanoma = tested on: UACC-62 melanoma
IGROV1 ovarian = tested on: IGROV1 ovarian
NCI/ADR-RES ovarian = tested on: NCI/ADR-RES ovarian
SF-295 CNS = tested on: SF-295 CNS
KM12 colon = tested on: KM12 colon
EKVX NSCLC = tested on: EKVX NSCLC
OVCAR-8 ovarian = tested on: OVCAR-8 ovarian
HOP-92 NSCLC = tested on: HOP-92 NSCLC
ACHN renal = tested on: ACHN renal
K-562 leukemia = tested on: K-562 leukemia
HCT-116 colon = tested on: HCT-116 colon
NCI-H23 lung = tested on: NCI-H23 lung
OVCAR-3 ovarian = tested on: OVCAR-3 ovarian
NCI-H226 lung = tested on: NCI-H226 lung
SN12C renal = tested on: SN12C renal
PC-3 prostate = tested on: PC-3 prostate
HL-60(TB) leukemia = tested on: HL-60(TB) leukemia
OVCAR-5 ovarian = tested on: OVCAR-5 ovarian
UACC-257 melanoma = tested on: UACC-257 melanoma
UO-31 renal = tested on: UO-31 renal
A549 NSCLC = tested on: A549 NSCLC
786-0 renal = tested on: 786-0 renal
OVCAR-4 ovarian = tested on: OVCAR-4 ovarian
SF-539 CNS = tested on: SF-539 CNS
LOX IMVI melanoma = tested on: LOX IMVI melanoma
HCT-15 colon = tested on: HCT-15 colon
T-47D breast = tested on: T-47D breast
MDA-MB-231 breast = tested on: MDA-MB-231 breast
SK-MEL-2 melanoma = tested on: SK-MEL-2 melanoma
U251 CNS = tested on: U251 CNS
SNB-19 CNS = tested on: SNB-19 CNS
SW-620 colon = tested on: SW-620 colon
SF-268 CNS = tested on: SF-268 CNS
BT-549 breast = tested on: BT-549 breast
CAKI-1 renal = tested on: CAKI-1 renal
COLO 205 colon = tested on: COLO 205 colon
MALME-3M melanoma = tested on: MALME-3M melanoma
NCI-H460 lung = tested on: NCI-H460 lung
HS 578T breast = tested on: HS 578T breast
CCRF-CEM leukemia = tested on: CCRF-CEM leukemia
SK-OV-3 ovarian = tested on: SK-OV-3 ovarian
TK-10 renal = tested on: TK-10 renal
SK-MEL-28 melanoma = tested on: SK-MEL-28 melanoma
RPMI-8226 leukemia = tested on: RPMI-8226 leukemia

**Q.** Which results are given for `CCCCCCCCCCCCCCCC(=O)OCC1OC(OCCCC)[C@H](O[C@@H]2OC(C)C(OC(=O)CCC)C(O)C2O)C(O)C1O` (stereo partly specified)?
**A.** GI50 (SNB-75 CNS): 14.4 µM; TGI (SNB-75 CNS): 28.7 µM; GI50 (NCI-H522 lung): 21.1 µM; TGI (NCI-H522 lung): 46.7 µM; GI50 (DU-145 prostate): 19.7 µM; TGI (DU-145 prostate): 35 µM; GI50 (RXF 393 renal): 22.3 µM; TGI (RXF 393 renal): 61.2 µM; GI50 (SK-MEL-5 melanoma): 17.7 µM; TGI (SK-MEL-5 melanoma): 34.2 µM; GI50 (HOP-62 NSCLC): 16.8 µM; TGI (HOP-62 NSCLC): 30.8 µM; GI50 (HT29 colon): 18.6 µM; TGI (HT29 colon): 38.7 µM; GI50 (MCF7 breast): 30.1 µM; TGI (MCF7 breast): > 100 µM; GI50 (MDA-MB-435): 13.3 µM; TGI (MDA-MB-435): 27.3 µM; GI50 (UACC-62 melanoma): 10.2 µM; TGI (UACC-62 melanoma): 23.6 µM; GI50 (IGROV1 ovarian): 23.1 µM; TGI (IGROV1 ovarian): > 100 µM; GI50 (NCI/ADR-RES ovarian): 18 µM; TGI (NCI/ADR-RES ovarian): 32.3 µM; GI50 (SF-295 CNS): 13.8 µM; TGI (SF-295 CNS): 28.2 µM; GI50 (KM12 colon): 17.1 µM; TGI (KM12 colon): 31.9 µM; GI50 (EKVX NSCLC): 19.4 µM; TGI (EKVX NSCLC): 36.5 µM; GI50 (OVCAR-8 ovarian): 17 µM; TGI (OVCAR-8 ovarian): 32.9 µM; GI50 (HOP-92 NSCLC): 17 µM; TGI (HOP-92 NSCLC): 33.2 µM; GI50 (ACHN renal): 18.1 µM; TGI (ACHN renal): 35.2 µM; GI50 (K-562 leukemia): 16.8 µM; TGI (K-562 leukemia): 31.6 µM; GI50 (HCT-116 colon): 15.4 µM; TGI (HCT-116 colon): 28.7 µM; GI50 (NCI-H23 lung): 16.2 µM; TGI (NCI-H23 lung): 30.2 µM; GI50 (OVCAR-3 ovarian): 13.4 µM; TGI (OVCAR-3 ovarian): 29.6 µM; GI50 (NCI-H226 lung): 16.8 µM; TGI (NCI-H226 lung): 36.2 µM; GI50 (SN12C renal): 14.1 µM; TGI (SN12C renal): 28.5 µM; GI50 (PC-3 prostate): 15.4 µM; TGI (PC-3 prostate): 30.5 µM; GI50 (HL-60(TB) leukemia): 14.5 µM; TGI (HL-60(TB) leukemia): 32 µM; GI50 (OVCAR-5 ovarian): 14.2 µM; TGI (OVCAR-5 ovarian): 27.6 µM; GI50 (UACC-257 melanoma): 22.6 µM; TGI (UACC-257 melanoma): 61.4 µM; GI50 (UO-31 renal): 28.3 µM; TGI (UO-31 renal): > 100 µM; GI50 (A549 NSCLC): 17.4 µM; TGI (A549 NSCLC): 34 µM; GI50 (786-0 renal): 16.7 µM; TGI (786-0 renal): 30.8 µM; GI50 (OVCAR-4 ovarian): 18.1 µM; TGI (OVCAR-4 ovarian): 34.2 µM; GI50 (SF-539 CNS): 21 µM; TGI (SF-539 CNS): 36.8 µM; GI50 (LOX IMVI melanoma): 20 µM; TGI (LOX IMVI melanoma): 44 µM; GI50 (HCT-15 colon): 22.5 µM; TGI (HCT-15 colon): 55.7 µM; GI50 (T-47D breast): 18.7 µM; TGI (T-47D breast): 40 µM; GI50 (MDA-MB-231 breast): 14.4 µM; TGI (MDA-MB-231 breast): 30.2 µM; GI50 (SK-MEL-2 melanoma): 41.2 µM; TGI (SK-MEL-2 melanoma): > 100 µM; GI50 (U251 CNS): 18.8 µM; TGI (U251 CNS): 38.8 µM; GI50 (SNB-19 CNS): 15.4 µM; TGI (SNB-19 CNS): 32.8 µM; GI50 (SW-620 colon): 21.9 µM; TGI (SW-620 colon): 44.5 µM; GI50 (SF-268 CNS): 18.4 µM; TGI (SF-268 CNS): 42.4 µM; GI50 (BT-549 breast): 23.4 µM; TGI (BT-549 breast): 41.7 µM; GI50 (CAKI-1 renal): 12.9 µM; TGI (CAKI-1 renal): 26.2 µM; GI50 (COLO 205 colon): 17.8 µM; TGI (COLO 205 colon): 37.2 µM; GI50 (MALME-3M melanoma): 16.7 µM; TGI (MALME-3M melanoma): 42.4 µM; GI50 (NCI-H460 lung): 22.4 µM; TGI (NCI-H460 lung): 57.8 µM; GI50 (HS 578T breast): 16.2 µM; TGI (HS 578T breast): 44.2 µM; GI50 (CCRF-CEM leukemia): 17.2 µM; TGI (CCRF-CEM leukemia): 35 µM; GI50 (SK-OV-3 ovarian): 5.12 µM; TGI (SK-OV-3 ovarian): 16.1 µM; GI50 (TK-10 renal): 15.6 µM; TGI (TK-10 renal): 30.2 µM; GI50 (SK-MEL-28 melanoma): 16.5 µM; TGI (SK-MEL-28 melanoma): 32.1 µM; GI50 (RPMI-8226 leukemia): 16.8 µM; TGI (RPMI-8226 leukemia): 33.4 µM

From PubChem BioAssay (NCI)
